# Reference: ChEMBL document CHEMBL4311960, “Two optimized antimicrobial peptides with therapeutic potential for clinical antibiotic-resistant Staphylococcus aureus” (Eur J Med Chem, 2019)
# Tests used:
# [1] = system: Candida albicans; experiment: Antifungal activity against Candida albicans ATCC 5314 assessed as reduction in fungal growth incubated for 24 hrs by serial dilution method; type: functional; conditions: ATCC 5314, 24 h
# [2] = system: Staphylococcus aureus; experiment: Antibacterial activity against methicillin-resistant Staphylococcus aureus ATCC 18466 assessed as reduction in bacterial growth incubated for 24 hrs by serial dilution method; type: functional; conditions: ATCC 18466, 24 h
# [3] = system: Streptococcus mutans; experiment: Antibacterial activity against Streptococcus mutans UA159 assessed as reduction in bacterial growth incubated for 24 hrs by serial dilution method; type: functional; conditions: UA159, 24 h
# [4] = Hemolytic activity in mouse Erythrocyte assessed as HC50 incubated for 1 hr; type: ADME, cell-based; conditions: mouse erythrocytes
# [5] = system: Staphylococcus aureus; experiment: Antibacterial activity against Staphylococcus aureus ATCC 25923 assessed as reduction in bacterial growth incubated for 24 hrs by serial dilution method; type: functional; conditions: ATCC 25923, 24 h
# [6] = Hemolytic activity in mouse Erythrocyte at 640 ug/ml incubated for 1 hr relative to control; type: ADME, cell-based; conditions: mouse erythrocytes, read-out: %max
# [7] = system: Erythrocyte; experiment: Hemolytic activity in mouse Erythrocyte assessed as HC10 incubated for 1 hr; type: ADME, cell-based
# [8] = Cytotoxicity against human HEK293T cells assessed as cell viability at 5 to 640 ug/ml incubated for 48 hrs by MTT assay relative to control; type: cell-based, HEK-293T; conditions: read-out: Activity
# [9] = system: Streptococcus sanguinis; experiment: Antibacterial activity against Streptococcus sanguinis ATCC 10556 assessed as reduction in bacterial growth incubated for 24 hrs by serial dilution method; type: functional; conditions: ATCC 10556, 24 h
# [10] = system: Staphylococcus aureus; experiment: Antibacterial activity against methicillin-resistant Staphylococcus aureus ATCC 19423 assessed as reduction in bacterial growth incubated for 24 hrs by serial dilution method; type: functional; conditions: ATCC 19423, 24 h
# [11] = system: Staphylococcus aureus; experiment: Antibacterial activity against methicillin-resistant Staphylococcus aureus ATCC 18567 assessed as reduction in bacterial growth incubated for 24 hrs by serial dilution method; type: functional; conditions: ATCC 18567, 24 h
# [12] = system: Staphylococcus aureus; experiment: Antibacterial activity against methicillin-resistant Staphylococcus aureus ATCC 19047 assessed as reduction in bacterial growth incubated for 24 hrs by serial dilution method; type: functional; conditions: ATCC 19047, 24 h
# [13] = system: Staphylococcus aureus; experiment: Antibacterial activity against methicillin-resistant Staphylococcus aureus ATCC 18475 assessed as reduction in bacterial growth incubated for 24 hrs by serial dilution method; type: functional; conditions: ATCC 18475, 24 h
# [14] = system: Staphylococcus aureus; experiment: Antibacterial activity against methicillin-resistant Staphylococcus aureus ATCC 19498 assessed as reduction in bacterial growth incubated for 24 hrs by serial dilution method; type: functional; conditions: ATCC 19498, 24 h
# [15] = system: Staphylococcus aureus; experiment: Antibacterial activity against Staphylococcus aureus ATCC 25923 assessed as reduction in bacterial growth at MIC measured after 15 passages; type: functional
# [16] = system: Staphylococcus aureus; experiment: Antibacterial activity against Staphylococcus aureus ATCC 8325.4 assessed as reduction in bacterial growth incubated for 24 hrs by serial dilution method; type: functional; conditions: ATCC 8325.4, 24 h
# [17] = system: Staphylococcus aureus; experiment: Antibacterial activity against Staphylococcus aureus ATCC 29213 assessed as reduction in bacterial growth incubated for 24 hrs by serial dilution method; type: functional; conditions: ATCC 29213, 24 h
# [18] = system: Staphylococcus aureus; experiment: Antibacterial activity against methicillin-resistant Staphylococcus aureus ATCC 19900 assessed as reduction in bacterial growth incubated for 24 hrs by serial dilution method; type: functional; conditions: ATCC 19900, 24 h
# [19] = system: Staphylococcus aureus; experiment: Ratio of MIC for resistant Staphylococcus aureus ATCC 29213 for 15 days to MIC for Staphylococcus aureus ATCC 29213 for 24 hrs; type: functional
# [20] = system: Staphylococcus aureus; experiment: Antibacterial activity against methicillin-resistant Staphylococcus aureus ATCC 18858 assessed as reduction in bacterial growth incubated for 24 hrs by serial dilution method; type: functional; conditions: ATCC 18858, 24 h
# [21] = system: Staphylococcus aureus; experiment: Antibacterial activity against methicillin-resistant Staphylococcus aureus ATCC 18878 assessed as reduction in bacterial growth incubated for 24 hrs by serial dilution method; type: functional; conditions: ATCC 18878, 24 h
# [22] = system: Staphylococcus aureus; experiment: Antibacterial activity against methicillin-resistant Staphylococcus aureus ATCC 19916 assessed as reduction in bacterial growth incubated for 24 hrs by serial dilution method; type: functional; conditions: ATCC 19916, 24 h
# [23] = system: Staphylococcus aureus; experiment: Antibacterial activity against methicillin-resistant Staphylococcus aureus ATCC 19167 assessed as reduction in bacterial growth incubated for 24 hrs by serial dilution method; type: functional; conditions: ATCC 19167, 24 h
# [24] = system: Staphylococcus aureus; experiment: Antibacterial activity against methicillin-resistant Staphylococcus aureus ATCC 19952 assessed as reduction in bacterial growth incubated for 24 hrs by serial dilution method; type: functional; conditions: ATCC 19952, 24 h
# [25] = system: Staphylococcus aureus; experiment: Antibacterial activity against methicillin-resistant Staphylococcus aureus ATCC 19494 assessed as reduction in bacterial growth incubated for 24 hrs by serial dilution method; type: functional; conditions: ATCC 19494, 24 h
# [26] = system: Staphylococcus aureus; experiment: Antibacterial activity against Staphylococcus aureus ATCC 29213 assessed as reduction in bacterial growth at MIC measured after 15 passages; type: functional
# [27] = system: Staphylococcus aureus; experiment: Antibacterial activity against Staphylococcus aureus ATCC 6538 assessed as reduction in bacterial growth incubated for 24 hrs by serial dilution method; type: functional; conditions: ATCC 6538, 24 h
# [28] = system: Staphylococcus aureus; experiment: Antibacterial activity against methicillin-resistant Staphylococcus aureus ATCC 19102 assessed as reduction in bacterial growth incubated for 24 hrs by serial dilution method; type: functional; conditions: ATCC 19102, 24 h
# [29] = system: Staphylococcus aureus; experiment: Antibacterial activity against methicillin-resistant Staphylococcus aureus ATCC 19041 assessed as reduction in bacterial growth incubated for 24 hrs by serial dilution method; type: functional; conditions: ATCC 19041, 24 h
# [30] = system: Staphylococcus aureus; experiment: Ratio of MIC for resistant Staphylococcus aureus ATCC 25923 for 15 days to MIC for Staphylococcus aureus ATCC 25923 for 24 hrs; type: functional
# [31] = system: Staphylococcus aureus; experiment: Antibacterial activity against methicillin-resistant Staphylococcus aureus ATCC 18908 assessed as reduction in bacterial growth incubated for 24 hrs by serial dilution method; type: functional; conditions: ATCC 18908, 24 h
# [32] = Cytotoxicity against human HEK293T cells assessed as cell viability at 640 ug/ml incubated for 48 hrs by MTT assay relative to control; type: cell-based, HEK-293T; conditions: read-out: Activity
compound,measurement,setting,value
H-YEIKINRHFKTLKKNLKK-NH2,MIC,[1]; read-out: MIC,< 64 µg/mL
same,MIC,[2]; read-out: MIC,< 64 µg/mL
same,MIC,[3],> 64 µg/mL
same,HC50 at 1 h,[4],> 640 µg/mL
same,MIC,[5]; read-out: MIC,< 64 µg/mL
same,"hemolysis at 1 h, 640 ug/ml",[6],7.94%
same,HC10,[7],> 640 µg/mL
same,viability at 48 h,[8],70 to 80%
same,MIC,[9],> 64 µg/mL
Clc1ccc(COC(Cn2ccnc2)c2ccc(Cl)cc2Cl)cc1 (stereo not given) [ECONAZOLE],MIC,[1]; read-out: MIC,4 µg/mL
COc1cccc(OC)c1C(=O)N[C@@H]1C(=O)N2[C@@H]1SC(C)(C)[C@@H]2C(=O)O [METHICILLIN],MIC,[10],> 1200 µg/mL
same,MIC,[11],> 1200 µg/mL
same,MIC,[12],> 1200 µg/mL
same,MIC,[13],> 1200 µg/mL
same,MIC,[14],> 1200 µg/mL
same,fold change (FC),[15],8 - 16
same,MIC,[16],1 µg/mL
same,MIC,[17],1 µg/mL
same,MIC,[18],> 1200 µg/mL
same,Ratio,[19],8 - 16
same,MIC,[2]; read-out: MIC,> 1200 µg/mL
same,MIC,[20],> 1200 µg/mL
same,MIC,[21],> 1200 µg/mL
same,MIC,[22],> 1200 µg/mL
same,MIC,[23],> 1200 µg/mL
same,MIC,[24],> 1200 µg/mL
same,MIC,[25],> 1200 µg/mL
same,fold change (FC),[26],8 - 16
same,MIC,[27],1 µg/mL
same,MIC,[28],> 1200 µg/mL
same,MIC,[29],> 1200 µg/mL
same,Ratio,[30],8 - 16
same,MIC,[5]; read-out: MIC,1 µg/mL
same,MIC,[31],> 1200 µg/mL
H-YIRKINRHFKTLKKNLKK-NH2,MIC,[1]; read-out: MIC,< 64 µg/mL
same,MIC,[2]; read-out: MIC,< 64 µg/mL
same,MIC,[3],> 64 µg/mL
same,HC50 at 1 h,[4],> 640 µg/mL
same,MIC,[5]; read-out: MIC,< 64 µg/mL
same,"hemolysis at 1 h, 640 ug/ml",[6],8.07%
same,HC10,[7],> 640 µg/mL
same,viability at 48 h,[8],70 to 80%
same,MIC,[9]; read-out: MIC,< 64 µg/mL
H-SYEIKINRHFKTLKKNLKKK-NH2,MIC,[1],> 64 µg/mL
same,MIC,[2],> 64 µg/mL
same,MIC,[3]; read-out: MIC,< 64 µg/mL
same,HC50 at 1 h,[4],> 640 µg/mL
same,MIC,[5]; read-out: MIC,< 64 µg/mL
same,"hemolysis at 1 h, 640 ug/ml",[6],6.78%
same,HC10,[7],> 640 µg/mL
same,viability at 48 h,[8],70 to 80%
same,MIC,[9],> 64 µg/mL
H-WYERLINRKFKWLKGRLSKK-NH2,MIC,[1]; read-out: MIC,< 64 µg/mL
same,MIC,[2]; read-out: MIC,< 64 µg/mL
same,MIC,[3],> 64 µg/mL
same,HC50 at 1 h,[4],> 640 µg/mL
same,MIC,[5],> 64 µg/mL
same,"hemolysis at 1 h, 640 ug/ml",[6],17.3%
same,HC10,[7],178.82 µg/mL
same,viability at 48 h,[8],70 to 80%
same,MIC,[9]; read-out: MIC,< 64 µg/mL
H-VWKRWVVRKWKWVKKKVKKK-NH2,MIC,[1]; read-out: MIC,64 µg/mL
same,"viability at 48 h, 640 ug/ml",[32],58.9%
same,MIC,[2]; read-out: MIC,< 64 µg/mL
same,MIC,[3]; read-out: MIC,< 64 µg/mL
same,HC50 at 1 h,[4],> 640 µg/mL
same,MIC,[5]; read-out: MIC,< 64 µg/mL
same,"hemolysis at 1 h, 640 ug/ml",[6],31%
same,HC10,[7],57.24 µg/mL
same,MIC,[9],> 64 µg/mL
